Data taken from US20030113742A1, “Methods and compositions for the modulation of biofilm formation” (priority 2001, published 2003).

What was measured:
[1] = test system: P. aeruginosa wild-type and rpoS mutant biofilms; assay: Killing of wild-type and rpoS mutant biofilms by tobramycin; assay type: cell-based, Pseudomonas aeruginosa; settings: increasing amounts of tobramycin
Procedure: To examine the involvement of rpoS in biofilm development, the wild-type strain and an isogenic rpoS mutant strain were grown in flow cell reactors and both were tagged with a gfp plasmid which expresses green fluorescent protein (GFP) (Whitely, et al. (2000) J. Bacteriology 182:4356-4360). The P. aeruginosa biofilms that developed in the flow cells were examined by scanning confocal laser microscopy. Within four hours, differences between the rpoS mutant and the wild-type biofilms were evident. The mutant had attached to and covered much more of the glass surface. In a quantitative microtitre dish assay, biofilm formation of the parent strain was 38% of the rpoS mutant. After 24 hours, the mutant biofilm had matured and large structured groups of bacteria were evident.
To assess whether rpoS influences the susceptibility of P. aeruginosa biofilms to antibiotics, biofilms of the P. aeruginosa wild-type and rpoS mutant were treated with increasing amounts of the aminoglycoside antibiotic tobramycin. […] These studies confirm that the microarray experiment, as described herein, identified a gene important for biofilm development and antibiotic susceptibility.

[2] = test system: planktonic P. aeruginosa PAO1; assay: Minimum inhibitory concentration for planktonic cells; assay type: cell-based, Pseudomonas aeruginosa PAO1
P. aeruginosa biofilms [3] = assay: Plate counting of biofilm cell numbers after tobramycin; assay type: cell-based, Pseudomonas aeruginosa PAO1; settings: 5 μg/ml
Procedure: (§1) P. aeruginosa PAO1 was grown at 37° C. with aeration in chemostat vessels (100 ml of medium, dilution rate, 0.2 h^−1). The growth medium consisted of 0.5% NH4Cl, 0.25% NaCl, 0.015% KH2PO4, 1.5% MOPS (pH, 7.0), and 0.015% casamino acids. For biofilms, the chemostat vessel contained 100 g of sterilized granite pebbles (approximately 70 pebbles). Vessels were inoculated with approximately 10^6 P. aeruginosa cells. For biofilm cultures, cells were allowed to attach to the rocks for 24 h prior to initiating the flow of medium, after which flow was initiated at a high rate (100 ml/h). After 2 h at this flow rate, more than 99% of all unattached bacteria were washed away. Flow was then decreased to give a final dilution rate identical to that in the planktonic chemostat. After 5 days cell numbers in the biofilm and planktonic chemostats were similar ([…]) as determined with standard plate counting techniques. To remove biofilm bacteria for plate counting, rocks were vortexed for 2 minutes in 5 ml phosphate buffered saline. A small planktonic population was present in the biofilm reactors throughout the experiment, but never represented more than 0.1% of the total chemostat population.
The existence in a biofilm might induce moderate levels of resistance to all antimicrobial treatments. […]

P. aeruginosa biofilms [4] = assay: Microarray of genes regulated by tobramycin in P. aeruginosa biofilms; assay type: cell-based, Pseudomonas aeruginosa PAO1; settings: for Fold activation ± SE: tobramycin 5 μg/ml 24 h, treated vs untreated biofilms
Procedure: as §1
RNA was isolated from planktonic and biofilm bacteria using the Trizol reagent (Life Technologies, Grand Island, N.Y.). Planktonic cells were pelleted by centrifugation (10,000 rpm for 10 min) at 4° C. For biofilm RNA isolation, rocks containing biofilm bacteria were rinsed with sterile medium and suspended in Trizol reagent. After vortexing for 1 min the rocks were removed and the remaining cell material was sonicated for 10 s. Insoluble material was removed by centrifugation and RNA was isolated as described above. Contaminating DNA was eliminated by DNase treatment, and RNA was isolated by phenol-chloroform extraction and precipitation with LiCl. cDNA probes were produced from RNA using random primers (NSNSNSNSNS) and Cy5-dCTP or Cy3-dCTP (Amersham, Buckinghamshire, UK) according to previously described procedures (J. K. Ichikawa, et al., Proc. Natl. Acad. Sci. U.S.A. 97, 9659 (2000)). To avoid complications associated with Cy5-dCTP and Cy3-dCTP incorporation rates into resulting cDNA, each RNA comparison was performed with both dye combinations on separate microarrays.
The microarrays were glass microscope slides containing representative gene-specific DNA fragments from 5,500 of the estimated 5,570 open reading frames (ORFs) of P. aeruginosa. The microarrays were printed with a Generation II Array printer (Molecular Dynamics), and the hybridized microarrays were images with a Generation II scanning confocal fluorescent microscope (Molecular Dynamics).
The existence in a biofilm might induce moderate levels of resistance to all antimicrobial treatments. This could afford cells in a biofilm the opportunity to respond to an antibiotic by inducing genes more specific to that antibiotic. Thus, biofilms exposed to tobramycin were compared with untreated biofilms. Tobramycin (5 μg/ml) was added to influent medium after 4 days of biofilm growth. After 24 h, biofilms were removed and processed for RNA.
The results (shown in Table 2, below) are from two independent experiments (1 standard error of the mean, SE). Positive values represent activation and negative values represent repression. Gene identifications and P. aeruginosa ORF numbers were obtained from the Pseudomonas Genome Project website. Genes that were repressed in biofilms and activated by tobramycin are underlined. Genes that were activated in biofilms and repressed by tobramycin are shown in italics and bold-face type. Eight of the 20 genes identified as being differentially expressed in tobramycin-treated biofilms (Table 2) were also identified as being differentially expressed in biofilms as compared to planktonic bacterial cells. […]

[5] = tobramycin-treated vs untreated biofilms, 7× MIC for planktonic cells

NC[C@H]1O[C@H](O[C@H]2[C@H](O)[C@@H](O[C@H]3O[C@H](CO)[C@@H](O)[C@H](N)[C@H]3O)[C@H](N)C[C@@H]2N)[C@H](N)C[C@@H]1O [tobramycin]
resistance of rpoS mutant biofilms to killing by tobramycin compared with wild-type biofilms [1]: much more resistant
5 μg/ml concentration as multiple of the minimum inhibitory concentration [2]: approximately 7 ×
effect on cell numbers in biofilms (P. aeruginosa biofilms [3]): did not significantly affect cell numbers in biofilms
Fold activation ± SE (P. aeruginosa biofilms [4]; gene: Conserved hypothetical protein (PA2498)): 2.9 ± 0.6 Fold
Fold activation ± SE (P. aeruginosa biofilms [4]; gene: Conserved hypothetical protein (PA3463)): 8.3 ± 3.2 Fold
Fold activation ± SE (P. aeruginosa biofilms [4]; gene: Conserved hypothetical protein (PA3785)): 5.0 ± 1.3 Fold
Fold activation ± SE (P. aeruginosa biofilms [4]; gene: Conserved hypothetical protein (PA3819)): 2.1 ± 0.3 Fold
Fold activation ± SE (P. aeruginosa biofilms [4]; gene: DnaK (PA4761)): 2.7 ± 0.4 Fold
Fold activation ± SE (P. aeruginosa biofilms [4]; gene: GroES (PA4386)): 5.8 ± 1.1 Fold
Fold activation ± SE (P. aeruginosa biofilms [4]; gene: Hypothetical protein (PA1110)): 8.7 ± 1.7 Fold
Fold activation ± SE (P. aeruginosa biofilms [4]; gene: Hypothetical protein (PA1870), negative = repression): −6.4 ± 1.5 Fold
Fold activation ± SE (P. aeruginosa biofilms [4]; gene: Hypothetical protein (PA1893), negative = repression): −2.4 ± 0.3 Fold
Fold activation ± SE (P. aeruginosa biofilms [4]; gene: Hypothetical protein (PA2703)): 19.3 ± 3.7 Fold
Fold activation ± SE (P. aeruginosa biofilms [4]; gene: Hypothetical protein (PA3884), negative = repression): −14.7 ± 5.7 Fold
Fold activation ± SE (P. aeruginosa biofilms [4]; gene: Hypothetical protein (PA4326)): 23.2 ± 7.5 Fold
Fold activation ± SE (P. aeruginosa biofilms [4]; gene: Hypothetical protein of bacteriophage PF1 (PA0721), negative = repression): −3.9 ± 1.0 Fold
Fold activation ± SE (P. aeruginosa biofilms [4]; gene: Hypothetical protein of bacteriophage PF1 (PA0725), negative = repression): −3.1 ± 0.5 Fold
Fold activation ± SE (P. aeruginosa biofilms [4]; gene: Probable DNA binding protein (PA5348)): 18.1 ± 4.9 Fold
Fold activation ± SE (P. aeruginosa biofilms [4]; gene: Probable drug efflux protein (PA1541)): 4.7 ± 1.4 Fold
Fold activation ± SE (P. aeruginosa biofilms [4]; gene: Probable metal transporting P-type ATPase (PA3920)): 3.6 ± 1.1 Fold
Fold activation ± SE (P. aeruginosa biofilms [4]; gene: Probable transcriptional regulator (PA3574)): 3.3 ± 0.6 Fold
Fold activation ± SE (P. aeruginosa biofilms [4]; gene: Ribosome modulation factor (PA3049)): 24.7 ± 11.4 Fold
Fold activation ± SE (P. aeruginosa biofilms [4]; gene: Urease beta subunit (PA4867), negative = repression): −3.7 ± 1.1 Fold
number of genes activated by tobramycin (P. aeruginosa biofilms [4]; [5]): 14
number of genes differentially expressed in tobramycin-treated biofilms (P. aeruginosa biofilms [4]; [5]): Twenty
number of genes repressed by tobramycin (P. aeruginosa biofilms [4]; [5]): 6
